Results taken from ChEMBL document CHEMBL1138695, “Synthesis of stavudine amino acid ester prodrugs with broad-spectrum chemotherapeutic properties for the effective treatment of HIV/AIDS” (Bioorg Med Chem Lett, 2004).
≈ marks a conversion by molar mass, not a printed value.

Tested on: Klebsiella pneumoniae
Assay: Antibacterial activity against Klebsiella pneumoniae
Type: functional
Details: not given
Work on `Cc1cn(C2C=CC(COC(=O)CNNC(=O)c3ccncc3)O2)c(=O)[nH]c1=O` (centres undefined) yielded an MIC of 1250 µg/mL (≈ 3110 µM).

Tested on: Pseudomonas aeruginosa
Assay: Antibacterial activity against Pseudomonas aeruginosa
Type: functional
Details: not given
Compound `Cc1cn(C2C=CC(COC(=O)CNNC(=O)c3ccncc3)O2)c(=O)[nH]c1=O` (centres undefined) has an MIC of 1250 µg/mL (≈ 3110 µM).

Tested on: Proteus vulgaris
Assay: Antibacterial activity against Proteus vulgaris
Type: functional
Details: not given
In the case of `Cc1cn(C2C=CC(COC(=O)CNNC(=O)c3ccncc3)O2)c(=O)[nH]c1=O` (centres undefined), the MIC is reported as 312 µg/mL (≈ 779 µM).

Tested on: Shigella boydii
Assay: Antibacterial activity against Shigella boydii
Type: functional
Details: not given
For `Cc1cn(C2C=CC(COC(=O)CNNC(=O)c3ccncc3)O2)c(=O)[nH]c1=O` (centres undefined), the MIC was 4.88 µg/mL (≈ 12.2 µM).

Tested on: Salmonella typhi
Assay: Antibacterial activity against […] Salmonella typhi
Type: functional, Salmonella enterica subsp. enterica serovar Typhi
Details: Salmonella enterica
`Cc1cn(C2C=CC(COC(=O)CNNC(=O)c3ccncc3)O2)c(=O)[nH]c1=O` (centres undefined) showed an MIC of 156 µg/mL (≈ 389 µM).

Tested on: CCRF-CEM
Assay: Cytotoxic concentration of compound required to reduce the viability of mock infected CEM cells by 50%
Type: functional
Details: Homo sapiens
In the case of `Cc1cn(C2C=CC(COC(=O)CNNC(=O)c3ccncc3)O2)c(=O)[nH]c1=O` (centres undefined), the CC50 is reported as greater than 200000 nM.

Tested on: Shigella sonnei
Assay: Antibacterial activity against Shigella sonnei
Type: functional
Details: not given
`Cc1cn(C2C=CC(COC(=O)CNNC(=O)c3ccncc3)O2)c(=O)[nH]c1=O` (centres undefined) showed an MIC of 156 µg/mL (≈ 389 µM).

Tested on: Staphylococcus aureus
Assay: Antibacterial activity against Staphylococcus aureus
Type: functional
Details: not given
Work on `Cc1cn(C2C=CC(COC(=O)CNNC(=O)c3ccncc3)O2)c(=O)[nH]c1=O` (centres undefined) yielded an MIC of 156 µg/mL (≈ 389 µM).

Tested on: Vibrio cholerae
Assay: Antibacterial activity against Vibrio cholerae 01
Type: functional
Details: not given
For `Cc1cn(C2C=CC(COC(=O)CNNC(=O)c3ccncc3)O2)c(=O)[nH]c1=O` (centres undefined), the MIC was 1250 µg/mL (≈ 3110 µM).

Tested on: Citrobacter freundii
Assay: Antibacterial activity against Citrobacter ferundii
Type: functional
Details: not given
With `Cc1cn(C2C=CC(COC(=O)CNNC(=O)c3ccncc3)O2)c(=O)[nH]c1=O` (centres undefined) the MIC was 1250 µg/mL (≈ 3110 µM).

Tested on: Vibrio mimicus
Assay: Antibacterial activity against Vibrio mimicus
Type: functional
Details: not given
`Cc1cn(C2C=CC(COC(=O)CNNC(=O)c3ccncc3)O2)c(=O)[nH]c1=O` (centres undefined) showed an MIC of 4.88 µg/mL (≈ 12.2 µM).

Tested on: Salmonella paratyphi
Assay: Antibacterial activity against Salmonella paratyphi A
Type: functional, Salmonella enterica subsp. enterica serovar Paratyphi A
Details: Salmonella enterica
Compound `Cc1cn(C2C=CC(COC(=O)CNNC(=O)c3ccncc3)O2)c(=O)[nH]c1=O` (centres undefined) has an MIC of 9.77 µg/mL (≈ 24.3 µM).

Tested on: not listed separately
Assay: Selectivity index expressed as the ratio of CC50 to EC50
Type: functional
Details: not given
Compound `Cc1cn(C2C=CC(COC(=O)CNNC(=O)c3ccncc3)O2)c(=O)[nH]c1=O` (centres undefined) has a Selectivity index greater than 497.

Tested on: Salmonella enteritidis
Assay: Antibacterial activity against Salmonella enteritidis
Type: functional, Salmonella enterica subsp. enterica serovar Enteritidis
Details: Salmonella enterica
`Cc1cn(C2C=CC(COC(=O)CNNC(=O)c3ccncc3)O2)c(=O)[nH]c1=O` (centres undefined) gave an MIC of 4.88 µg/mL (≈ 12.2 µM).

Tested on: Vibrio fluvialis
Assay: Antibacterial activity against Vibrio fluvialis
Type: functional
Details: not given
`Cc1cn(C2C=CC(COC(=O)CNNC(=O)c3ccncc3)O2)c(=O)[nH]c1=O` (centres undefined) gave an MIC of 1250 µg/mL (≈ 3110 µM).

Tested on: Vibrio parahaemolyticus
Assay: Antibacterial activity against Vibrio parahaemolyticus
Type: functional
Details: not given
`Cc1cn(C2C=CC(COC(=O)CNNC(=O)c3ccncc3)O2)c(=O)[nH]c1=O` (centres undefined) showed an MIC of 1250 µg/mL (≈ 3110 µM).

Tested on: Priestia megaterium
Assay: Antibacterial activity against Bacillus megatherium
Type: functional
Details: not given
With `Cc1cn(C2C=CC(COC(=O)CNNC(=O)c3ccncc3)O2)c(=O)[nH]c1=O` (centres undefined) the MIC was 2.44 µg/mL (≈ 6.08 µM).

Tested on: Morganella morganii
Assay: Antibacterial activity against Morganella morganii
Type: functional
Details: not given
`Cc1cn(C2C=CC(COC(=O)CNNC(=O)c3ccncc3)O2)c(=O)[nH]c1=O` (centres undefined) showed an MIC of 156 µg/mL (≈ 389 µM).

Tested on: Vibrio cholerae
Assay: Antibacterial activity against Vibrio cholerae 0139
Type: functional
Details: not given
In the case of `Cc1cn(C2C=CC(COC(=O)CNNC(=O)c3ccncc3)O2)c(=O)[nH]c1=O` (centres undefined), the MIC is reported as 156 µg/mL (≈ 389 µM).

Tested on: Escherichia coli
Assay: Antibacterial activity against Escherichia coli NCTC 10418
Type: functional
Details: not given
In the case of `Cc1cn(C2C=CC(COC(=O)CNNC(=O)c3ccncc3)O2)c(=O)[nH]c1=O` (centres undefined), the MIC is reported as 156 µg/mL (≈ 389 µM).

Tested on: Klebsiella pneumoniae
Assay: Antibacterial activity against Klebsiella ozaenae
Type: functional
Details: subsp. ozaenae
Compound `Cc1cn(C2C=CC(COC(=O)CNNC(=O)c3ccncc3)O2)c(=O)[nH]c1=O` (centres undefined) has an MIC of 9.76 µg/mL (≈ 24.3 µM).

Tested on: Salmonella typhimurium
Assay: Antibacterial activity against Salmonella Typhimurium
Type: functional, Salmonella enterica subsp. enterica serovar Typhimurium
Details: Salmonella enterica
With `Cc1cn(C2C=CC(COC(=O)CNNC(=O)c3ccncc3)O2)c(=O)[nH]c1=O` (centres undefined) the MIC was 1250 µg/mL (≈ 3110 µM).

Tested on: Enterobacter
Assay: Antibacterial activity against Enterobacter
Type: functional
Details: not given
In the case of `Cc1cn(C2C=CC(COC(=O)CNNC(=O)c3ccncc3)O2)c(=O)[nH]c1=O` (centres undefined), the MIC is reported as 312 µg/mL (≈ 779 µM).

Tested on: Edwardsiella tarda
Assay: Antibacterial activity against Edwardsiella tarda
Type: functional
Details: not given
`Cc1cn(C2C=CC(COC(=O)CNNC(=O)c3ccncc3)O2)c(=O)[nH]c1=O` (centres undefined) showed an MIC of 156 µg/mL (≈ 389 µM).

Tested on: CCRF-CEM
Assay: Effective concentration of compound achieving 50% protection in CEM cell lines against the cytopathic effect of HIV-1
Type: functional, cell-based
Details: Homo sapiens
With `Cc1cn(C2C=CC(COC(=O)CNNC(=O)c3ccncc3)O2)c(=O)[nH]c1=O` (centres undefined) the EC50 was 402 nM.

Tested on: not listed separately
Assay: In vitro hydrolysis in human plasma
Type: ADME, cell-free
Details: not given
In the case of `Cc1cn(C2C=CC(COC(=O)CNNC(=O)c3ccncc3)O2)c(=O)[nH]c1=O` (centres undefined), the half-life is reported as 1 h.

Tested on: Plesiomonas shigelloides
Assay: Antibacterial activity against Plesiomonas shigelloides
Type: functional
Details: not given
Compound `Cc1cn(C2C=CC(COC(=O)CNNC(=O)c3ccncc3)O2)c(=O)[nH]c1=O` (centres undefined) has an MIC of 312 µg/mL (≈ 779 µM).

Tested on: Mycobacterium tuberculosis
Assay: Antimycobacterial activity against Mycobacterium tuberculosis strain H37Rv
Type: functional
Parameters: concentration or dose not given beside the values
Details: not given
`Cc1cn(C2C=CC(COC(=O)CNNC(=O)c3ccncc3)O2)c(=O)[nH]c1=O` (centres undefined) showed an Inhibition of 90%.

Tested on: Proteus mirabilis
Assay: Antibacterial activity against Proteus mirabilis
Type: functional
Details: not given
`Cc1cn(C2C=CC(COC(=O)CNNC(=O)c3ccncc3)O2)c(=O)[nH]c1=O` (centres undefined) gave an MIC of 2.44 µg/mL (≈ 6.08 µM).
